≈ marks a conversion by molar mass, not a printed value. Like-named read-outs stand apart in the source and are kept apart here. No end group written: not given here.

The values that follow come from patent US20100093642A1, “NOVEL POLYPEPTIDES” (priority 2006, published 2010).

Test [1] relates to human breast malignant carcinoma cell line MCF-7. It is filed as cell-based. To be noted: 24 hours, maximum 200 μg/ml. The protocol:
(§1) The cytotoxic effects of the peptides on different human tumour cells were measured using the MTT colorimetric assay (Mosmann, 1983). […] Dissolved MIT is converted to an insoluble purple formazan by cleavage of the tetrazolium ring by dehydrogenase enzymes. This water insoluble formazan can be solubilized using isopropanol or other solvents and the dissolved material is measured spectrophotometrically. The absorbance was measured as a function of concentration of converted dye. The conversion of the soluble dye to the insoluble purple formazan is utilized in assays for measurement of cell proliferation. […] We used this assay to measure the degree of cell death caused by the peptides. MCF-7 was maintained in EMEM, A2058 in DMEM and […]-29 in RPMI-1640 medium supplemented with 10% heat inactivated […] and 1% L-glutamine-L-alanine in a humidified atmosphere of 5% CO2 at 37° C. The human embryonic fibroblast cell line, MRC-5 (which is normal fibroblasts), was cultured as a monolayer in MEM medium, under the same conditions as described for the tumour cell lines. Cells to be used in the assay were grown to a minimum of 75% confluency, trypsinated and split to single cell suspension, counted and centrifuged at 1500 rpm for 10 min. The cell pellet was resuspended to a concentration of 2×10^5 cells/ml (HT-29) or 1×10^5 (MRC-5, MCF7 and A2058) in DMEM without FBS and L-glutamine-L-alanine (assay-medium). All cell lines were routinely tested for mycoplasma infection using a PCR-based mycoplasma detection kit (MycoSensor PCR Assay Kit, Stratagene), following the supplier's instructions. All cell lines were mycoplasma free. The cytotoxicity was measured using the MTT method (Mosmann, 1983), with minor modifications. Different human tumour cells (1-2×10^5) were applied in 96-well culture plates in a volume of 100 μl DMEM medium and incubated at 37° C. for 24 hours. The medium was removed and the cells were treated with 100 μl of peptide solution (concentrations ranging from 0 to 200 μg/ml), diluted in a) RPMI-1640 medium supplemented with 5% heat inactivated FBS, or b) RPMI-1640 medium without FBS. The plates were incubated at 37° C. for 24 hours. Cells treated with Triton X-100 (1%) was used as positive control (100% killing) whereas cells plus medium only were used as negative control. […] A volume of 70 μl of the supernatant was then removed and […] (0.04 M HCl in isopropanol) added to each well. The plate was placed on a shaker for 1 hour at room temperature and read spectrophotometrically at 590 nm in a microtiter plate reader (DTX880 Multimode Detector, Beckman Coulter).

Test [2] has as its system human embryonic lung fibroblast cell line MRC-5. It is filed as cell-based. To be noted: normal fibroblasts, 24 hours, maximum 200 μg/ml. Here is the method:
as §1

In test [3] the test system is human colorectal adenocarcinoma cell line HT-29. In kind it is cell-based. The settings on record: 24 hours, maximum 200 μg/ml. Here is the method:
as §1

Test [4] concerns human skin malignant melanoma cell line A2058. In kind it is cell-based. The settings on record: 24 hours, maximum 200 μg/ml. The protocol:
as §1

The next test deals with S. aureus. In kind it is cell-based, Staphylococcus aureus. The settings on record: lowest concentration causing optical density less than 50% of growth control. The protocol: (§2) The Gram-negative bacteria Listonella (Vibrio) anguillarum, serotype O2 (FT 1801, also coded as AL 104/LFI 6004), originally isolated from Atlantic salmon by staff of the Norwegian Veterinary Institute (Oslo, Norway), Escherichia con (ATCC 25922), and the Gram-positive bacteria Staphylococcus aureus (ATCC 9144) and Corynebacterium glutamicum (ATCC 13032) were used as test organisms. All isolates were grown at room temperature in Mueller Hinton Broth (MBB; Difco Laboratories, Detroit, U.S.A).
(§3) The antibacterial activities of the obtained HPLC fractions were determined by continuous monitoring of bacterial growth with a Bioscreen C microbiology reader (Labsystems Oy, Helsinki, Finland). The test was performed in 100-well flat-bottomed honeycomb plates, in which […] of test fractions were incubated with 50 μl of a suspension of an actively growing culture of bacteria diluted to a starting concentration of 5×10^3 cells per well. The growth chamber was maintained at 20° C. during the incubation period. The absorbance was measured at 2 h intervals for 48 h by a turbidometric method with vertical light photometry and a wide band filter (420-580 nm), which is more insensitive to colour change in the sample compared to single wavelength detection. Cecropin P1(0.5 μg/ml) was used as a positive control during these experiments. Antibacterial activity was determined when the optical density (OD) of the growth control (bacteria plus water) reached an absorbance of approximately 0.3. Fractions were regarded as active when the OD was less than 50% of the growth control.
(§4) The polypeptides of the present invention were isolated and subsequently tested for activity. A serial dilution method was employed to examine the antibacterial activity of the peptides. Two Gram-negative bacteria, L. anguillarum and E. coli, and two Gram-positive bacteria, C. glutamicum and S. aureus, were chosen as test bacteria. The polypeptides of the present invention were active against both Gram-positive and Gram-negative bacteria (table 4).

The subject of another test is L. anguillarum. It is filed as cell-based, Listonella (Vibrio) anguillarum. The settings on record: lowest concentration causing optical density less than 50% of growth control. Here is the method: as §2, §3, §4
The test system of a further test is E. coli. It is filed as cell-based, Escherichia coli. To be noted: lowest concentration causing optical density less than 50% of growth control. The protocol: as §2, §3, §4
For another test, the system named is C. glutamicum. It is filed as cell-based, Corynebacterium glutamicum. To be noted: lowest concentration causing optical density less than 50% of growth control. The protocol: as §2, §3, §4
Test [5] has as its system Citrobacter freundii, K15-75. In kind it is cell-based. To be noted: clinical isolate; 37° C.; 3×10^6 cells per ml. Here is the method:
(§5) The antibacterial activities of the different peptides were determined by continuous monitoring of bacterial growth with a Bioscreen C microbiology reader (Labsystems Oy, Helsinki, Finland). The test was performed in 100-well flat-bottomed honeycomb plates, in which 50 μl of test fractions were incubated with 50 μl of a suspension of an actively growing culture of bacteria diluted in Mueller Hinton medium to a starting concentration of 3×10^4 cells per ml. The Gram-negative bacteria, Listonella (Vibrio) anguillarum, serotype O2 (FT 1801, a fish pathogenic strain), Pseudomonas aeruginosa and E. coli (ATCC 25922), and the Gram-positive bacteria, C. glutamicum (ATCC 13032) and S. aureus (ATCC 9144), were chosen as test bacteria. The growth chamber was maintained at either 20 or 37° C. during the incubation period. The absorbance was measured at 2 h intervals for 48 h by a turbidometric method with vertical light photometry and a wide band filter (420-580 nm), which is more insensitive to color change in the sample compared to single wavelength detection. Antibacterial activity was determined when the optical density (OD) of the growth control (bacteria plus water) reached an absorbance of 0.3-0.4. Fractions were regarded as active when the OD was less than 50% of the growth control. Polymyxin B (Sigma, St. Louis, Mo., USA), Lactoferricin B, Cecropin P1 and Hyalophora cecropia Cecropin B were used as reference.
(§6) The antimicrobial molecules were also tested against drug resistant clinical isolates, such as the commonly encountered multi-resistant human pathogen S. aureus (MRSA) K15-64 and the glycopeptide (vancomycin)-resistant Enterococccus faecium (GREF) K9-28. The non-clinical isolates Escherichia coli (ATCC 25922), Pseudomonas aeruginosa (ATCC 27853), Corynebacterium glutamicum (ATCC 13032), and Staphylococcus aureus (ATCC 9144) were also tested for comparison. Serial dilutions of synthetic peptides were made in double distilled water and tested according to the method described above. However, in these experiments the starting concentration of bacteria were 3×10^6 cells per ml and the temperature in the growth chamber was 37° C. Polymyxin B was used as positive control for the Gram-negative bacteria.

Test [6] relates to Acinetobacter baumannilii, K15-9. In kind it is cell-based. To be noted: clinical isolate; 37° C.; 3×10^6 cells per ml. The protocol: as §5, §6
The test system of another test is Pseudomonas K15-60. It is filed as cell-based. The settings on record: clinical isolate; 37° C.; 3×10^6 cells per ml. The protocol: as §5, §6
The test system of a further test is Salmonella K14-40. It is filed as cell-based. To be noted: clinical isolate; 37° C.; 3×10^6 cells per ml. The protocol: as §5, §6
A further test deals with Klebsiella K15-72. It is filed as cell-based. The settings on record: clinical isolate; 37° C.; 3×10^6 cells per ml. Here is the method: as §5, §6
In the next test the test system is Escherichia coli, K15-58. It is filed as cell-based. To be noted: clinical isolate; 37° C.; 3×10^6 cells per ml. The protocol:
as §5, §6

Setting [7] is: RPMI-1640 medium containing 5% FBS.

For the compound `NC(Cc1c[nH]c2ccc(Br)cc12)C(=O)O` [5-D/L-Br-Trp, 5-Bromo-D/L-tryptophan, reference compound], the “Antitumoral activity IC50, MCF-7” value in [1] (setting [7]) and in test [1] (serum-free RPMI-1640 medium) was “— (The symbol “—” denotes no activity within the concentration range tested.)” throughout. For the same compound, the “IC50, MRC-5” value in test [2] (setting [7]) and in [2] (serum-free RPMI-1640 medium) was “* (The symbol “*” denotes 30-50% killing at the highest concentration tested.)” in each case. The “Antitumoral activity IC50, HT-29” value is “— (The symbol “—” denotes no activity within the concentration range tested.)” in test [3] (setting [7]) and “* (The symbol “*” denotes 30-50% killing at the highest concentration tested.)” in test [3] (serum-free RPMI-1640 medium). Further, the “Antitumoral activity IC50, A2058” value in test [4] (setting [7]) and in test [4] (serum-free RPMI-1640 medium) was “— (The symbol “—” denotes no activity within the concentration range tested.)” in each case.
Turning to `NC(Cc1c[nH]c2cc(Br)ccc12)C(=O)O` [6-D/L-Br-Trp, 6-Bromo-D/L-tryptophan, reference compound], the “Antitumoral activity IC50, MCF-7” value in test [1] (setting [7]) and in [1] (serum-free RPMI-1640 medium) was “* (The symbol “*” denotes 30-50% killing at the highest concentration tested.)” in each case. In test [2] (setting [7]), the “IC50, MRC-5” value was “* (The symbol “*” denotes 30-50% killing at the highest concentration tested.)”. In addition, the IC50 came to 584 µM in test [2] (serum-free RPMI-1640 medium, read-out: IC50, MRC-5) and 655 µM in [4] (serum-free RPMI-1640 medium, read-out: Antitumoral activity IC50, A2058). The “Antitumoral activity IC50, HT-29” value in [3] (setting [7]) and in test [3] (serum-free RPMI-1640 medium) was “* (The symbol “*” denotes 30-50% killing at the highest concentration tested.)” in each case. For the same compound, in [4] (setting [7]), the “Antitumoral activity IC50, A2058” value is recorded as “* (The symbol “*” denotes 30-50% killing at the highest concentration tested.)”.
In the case of `CC[C@H](C)[C@@H]1NC(=O)[C@H](CO)NC(=O)[C@@H]2CCCN2C(=O)[C@H](C)NC(=O)CNC(=O)[C@H](CC(C)C)NC(=O)[C@H](CCCCN)NC(=O)[C@H](CCCCN)NC(=O)[C@H](CCSC)NC(=O)[C@H](CCCNC(=N)N)NC(=O)[C@H](Cc2c[nH]c3ccccc23)NC(=O)[C@H](CCC(N)=O)NC(=O)[C@H](Cc2c[nH]c3ccccc23)NC(=O)[C@H](CCCNC(=N)N)NC(=O)[C@H](CCCNC(=N)N)NC(=O)[C@@H](NC(=O)[C@H](CCCCN)NC(=O)[C@@H](N)Cc2ccccc2)CSSC[C@@H](C(=O)N[C@H](C(=O)N[C@@H](CCCNC(=N)N)C(=O)N[C@@H](CCCNC(=N)N)C(=O)N[C@@H](C)C(=O)N[C@@H](Cc2ccccc2)C(=O)O)C(C)C)NC(=O)[C@H]([C@@H](C)O)NC1=O` [Lactoferricin B], the “Minimal inhibitory concentration (MIC), S. aureus” value in the test on S. aureus was determined as 6.3 µM (≈ 19.7 µg/mL). Moreover, the “Minimal inhibitory concentration (MIC), L. anguillarum” value with L. anguillarum came out at 3.1 µM (≈ 9.68 µg/mL). Besides, in the test with E. coli, the “Minimal inhibitory concentration (MIC), E. coli” value came to 3.1 µM (≈ 9.68 µg/mL). Further, the “Minimal inhibitory concentration (MIC), C. glutamicum” value with C. glutamicum turned out to be 1.6 µM (≈ 5 µg/mL).
On to “P20: dimeric polypeptide from S. droebachiensis coelomocytes: first monomer SEQIDNO7, second monomer SEQIDNO8 (chain 1 SXFSRTVHNVGNAVRKGIHAGQGVCSGLGL; chain 2 DLRAICAGAHAL; not fully specified (bridges); X: residue not identified in the source; cysteine pairing not given here; also: heterodimer of two chains; listed as Strongylocentrotus droebachiensis) [Peptide P20]”, for which the “Minimal inhibitory concentration (MIC), S. aureus” value with S. aureus was found to be 5.0 µM. Moreover, the “Minimal inhibitory concentration (MIC), L. anguillarum” value in the test on L. anguillarum worked out at 2.5 µM. The “Minimal inhibitory concentration (MIC), E. coli” value in the test with E. coli amounted to 2.5 µM. In the test on C. glutamicum, the “Minimal inhibitory concentration (MIC), C. glutamicum” value turned out to be 1.3 µM.
For the compound Polymyxin B [reference compound], the “Minimal inhibitory concentration (MIC), S. aureus” value with S. aureus came to 6.3 µM. In the test with L. anguillarum, the “Minimal inhibitory concentration (MIC), L. anguillarum” value came out at 0.8 µM. For the same compound, the “Minimal inhibitory concentration, Citrobacter freundii, K15-75” value in test [5] was 0.78 µM. Further, in test [6], the “Minimal inhibitory concentration, Acinetobacter baumannilii, K15-9” value stood at 0.78 µM. In addition, the “Minimal inhibitory concentration, Pseudomonas K15-60” value in the test with Pseudomonas K15-60 was found to be 3.12 µM. Moreover, in the test on Salmonella K14-40, the “Minimal inhibitory concentration, Salmonella K14-40” value amounted to 3.12 µM. In the test with Klebsiella K15-72, the “Minimal inhibitory concentration, Klebsiella K15-72” value stood at 6.25 µM. In the test on Escherichia coli, K15-58, the “Minimal inhibitory concentration, Escherichia coli, K15-58” value was 3.12 µM. The “Minimal inhibitory concentration (MIC), E. coli” value in the test with E. coli is 0.8 µM. The “Minimal inhibitory concentration (MIC), C. glutamicum” value with C. glutamicum came out at 1.6 µM.

In general, IC50 refers to the concentration that inhibits the measured activity by half.
